# Assay results reported in PubChem BioAssay (NCI).
#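 Cells were grown in 96-well plates and exposed to each compound for 48 hours at five concentrations; endpoints were interpolated linearly between bracketing concentrations, or set to the highest concentration if not reached. The concentration for 50% growth inhibition is given as GI50. At the TGI there is no net growth.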
# How the values were obtained:
# Assay in all cases: NCI tumour cell line growth inhibition, 48 h
# 786-0 renal = system: 786-0 renal
# A549 NSCLC = system: A549 NSCLC
# ACHN renal = system: ACHN renal
# BT-549 breast = system: BT-549 breast
# CAKI-1 renal = system: CAKI-1 renal
# COLO 205 colon = system: COLO 205 colon
# DU-145 prostate = system: DU-145 prostate
# EKVX NSCLC = system: EKVX NSCLC
# HCC-2998 colon = system: HCC-2998 colon
# HCT-116 colon = system: HCT-116 colon
# HCT-15 colon = system: HCT-15 colon
# HOP-62 NSCLC = system: HOP-62 NSCLC
# HS 578T breast = system: HS 578T breast
# HT29 colon = system: HT29 colon
# K-562 leukemia = system: K-562 leukemia
# KM12 colon = system: KM12 colon
# MALME-3M melanoma = system: MALME-3M melanoma
# MCF7 breast = system: MCF7 breast
# MDA-MB-231 breast = system: MDA-MB-231 breast
# MDA-MB-435 = system: MDA-MB-435
# NCI-H23 lung = system: NCI-H23 lung
# NCI-H460 lung = system: NCI-H460 lung
# NCI-H522 lung = system: NCI-H522 lung
# NCI/ADR-RES ovarian = system: NCI/ADR-RES ovarian
# OVCAR-3 ovarian = system: OVCAR-3 ovarian
# OVCAR-4 ovarian = system: OVCAR-4 ovarian
# RPMI-8226 leukemia = system: RPMI-8226 leukemia
# RXF 393 renal = system: RXF 393 renal
# SF-268 CNS = system: SF-268 CNS
# SF-539 CNS = system: SF-539 CNS
# SK-MEL-5 melanoma = system: SK-MEL-5 melanoma
# SK-OV-3 ovarian = system: SK-OV-3 ovarian
# SNB-19 CNS = system: SNB-19 CNS
# SNB-75 CNS = system: SNB-75 CNS
# SW-620 colon = system: SW-620 colon
# T-47D breast = system: T-47D breast
# TK-10 renal = system: TK-10 renal
# U251 CNS = system: U251 CNS
# UACC-62 melanoma = system: UACC-62 melanoma
# UO-31 renal = system: UO-31 renal
# HL-60(TB) leukemia = system: HL-60(TB) leukemia
# HOP-92 NSCLC = system: HOP-92 NSCLC
# IGROV1 ovarian = system: IGROV1 ovarian
# LOX IMVI melanoma = system: LOX IMVI melanoma
# MOLT-4 leukemia = system: MOLT-4 leukemia
# NCI-H226 lung = system: NCI-H226 lung
# OVCAR-5 ovarian = system: OVCAR-5 ovarian
# OVCAR-8 ovarian = system: OVCAR-8 ovarian
# PC-3 prostate = system: PC-3 prostate
# SF-295 CNS = system: SF-295 CNS
# SK-MEL-2 melanoma = system: SK-MEL-2 melanoma
# SK-MEL-28 melanoma = system: SK-MEL-28 melanoma
# SN12C renal = system: SN12C renal
# SR leukemia = system: SR leukemia
# UACC-257 melanoma = system: UACC-257 melanoma
compound,measurement,setting,value
Nc1ccn(C2OC(CO)C3[O][Sn]([c]4ccccc4)([c]4ccccc4)[O]C32)c(=O)n1 (stereo unspecified),GI50,786-0 renal,0.656 µM
same,GI50,A549 NSCLC,0.0344 µM
same,GI50,ACHN renal,0.361 µM
same,GI50,BT-549 breast,30.7 µM
same,GI50,CAKI-1 renal,4.66 µM
same,GI50,COLO 205 colon,0.141 µM
same,GI50,DU-145 prostate,0.149 µM
same,TGI,DU-145 prostate,19.6 µM
same,GI50,EKVX NSCLC,34.2 µM
same,GI50,HCC-2998 colon,0.0629 µM
same,TGI,HCC-2998 colon,17.9 µM
same,GI50,HCT-116 colon,0.024 µM
same,GI50,HCT-15 colon,15 µM
same,GI50,HOP-62 NSCLC,1.51 µM
same,GI50,HS 578T breast,29.5 µM
same,GI50,HT29 colon,1.45 µM
same,GI50,K-562 leukemia,53.2 µM
same,GI50,KM12 colon,35.5 µM
same,GI50,MALME-3M melanoma,17.9 µM
same,GI50,MCF7 breast,0.0984 µM
same,GI50,MDA-MB-231 breast,24.1 µM
same,TGI,MDA-MB-231 breast,82.6 µM
same,GI50,MDA-MB-435,6.25 µM
same,GI50,NCI-H23 lung,0.39 µM
same,GI50,NCI-H460 lung,0.0187 µM
same,GI50,NCI-H522 lung,10.8 µM
same,TGI,NCI-H522 lung,29 µM
same,GI50,NCI/ADR-RES ovarian,4.73 µM
same,GI50,OVCAR-3 ovarian,34.8 µM
same,GI50,OVCAR-4 ovarian,43.1 µM
same,GI50,RPMI-8226 leukemia,13.7 µM
same,TGI,RPMI-8226 leukemia,49.1 µM
same,GI50,RXF 393 renal,1.73 µM
same,TGI,RXF 393 renal,22.3 µM
same,GI50,SF-268 CNS,1.79 µM
same,GI50,SF-539 CNS,2.17 µM
same,TGI,SF-539 CNS,20.5 µM
same,GI50,SK-MEL-5 melanoma,3.75 µM
same,GI50,SK-OV-3 ovarian,26.6 µM
same,GI50,SNB-19 CNS,3.34 µM
same,GI50,SNB-75 CNS,14 µM
same,TGI,SNB-75 CNS,50.1 µM
same,GI50,SW-620 colon,0.803 µM
same,TGI,SW-620 colon,61.5 µM
same,GI50,T-47D breast,15.3 µM
same,GI50,TK-10 renal,32.3 µM
same,GI50,U251 CNS,0.617 µM
same,TGI,U251 CNS,22.8 µM
same,GI50,UACC-62 melanoma,6.36 µM
same,GI50,UO-31 renal,0.221 µM
COc1cccc2c1-c1ccccc1C2=O,GI50,786-0 renal,3.15 µM
same,TGI,786-0 renal,> 100 µM
same,GI50,A549 NSCLC,2.65 µM
same,TGI,A549 NSCLC,> 100 µM
same,GI50,ACHN renal,0.783 µM
same,TGI,ACHN renal,> 100 µM
same,GI50,BT-549 breast,1.17 µM
same,TGI,BT-549 breast,> 100 µM
same,GI50,CAKI-1 renal,0.543 µM
same,TGI,CAKI-1 renal,> 100 µM
same,GI50,COLO 205 colon,1.91 µM
same,TGI,COLO 205 colon,4.62 µM
same,GI50,DU-145 prostate,2.9 µM
same,TGI,DU-145 prostate,> 100 µM
same,GI50,EKVX NSCLC,9.49 µM
same,TGI,EKVX NSCLC,> 100 µM
same,GI50,HCC-2998 colon,3.35 µM
same,TGI,HCC-2998 colon,47.1 µM
same,GI50,HCT-116 colon,3.14 µM
same,TGI,HCT-116 colon,17.4 µM
same,GI50,HCT-15 colon,2.71 µM
same,TGI,HCT-15 colon,> 100 µM
same,GI50,HL-60(TB) leukemia,2.19 µM
same,TGI,HL-60(TB) leukemia,6.37 µM
same,GI50,HOP-62 NSCLC,1.65 µM
same,TGI,HOP-62 NSCLC,> 100 µM
same,GI50,HOP-92 NSCLC,4.6 µM
same,TGI,HOP-92 NSCLC,85.2 µM
same,GI50,HS 578T breast,0.815 µM
same,TGI,HS 578T breast,> 100 µM
same,GI50,HT29 colon,3.03 µM
same,TGI,HT29 colon,12.5 µM
same,GI50,IGROV1 ovarian,1.46 µM
same,TGI,IGROV1 ovarian,> 100 µM
same,GI50,K-562 leukemia,0.801 µM
same,TGI,K-562 leukemia,> 100 µM
same,GI50,KM12 colon,3.42 µM
same,TGI,KM12 colon,> 100 µM
same,GI50,LOX IMVI melanoma,2.24 µM
same,TGI,LOX IMVI melanoma,> 100 µM
same,GI50,MALME-3M melanoma,6.54 µM
same,TGI,MALME-3M melanoma,> 100 µM
same,GI50,MCF7 breast,1.14 µM
same,TGI,MCF7 breast,> 100 µM
same,GI50,MDA-MB-231 breast,3.25 µM
same,TGI,MDA-MB-231 breast,48.3 µM
same,GI50,MDA-MB-435,0.225 µM
same,TGI,MDA-MB-435,0.79 µM
same,GI50,MOLT-4 leukemia,4.25 µM
same,TGI,MOLT-4 leukemia,> 100 µM
same,GI50,NCI-H226 lung,1.19 µM
same,TGI,NCI-H226 lung,> 100 µM
same,GI50,NCI-H23 lung,4.2 µM
same,TGI,NCI-H23 lung,> 100 µM
same,GI50,NCI-H460 lung,0.628 µM
same,TGI,NCI-H460 lung,11.5 µM
same,GI50,NCI-H522 lung,0.276 µM
same,TGI,NCI-H522 lung,4.33 µM
same,GI50,OVCAR-4 ovarian,2.69 µM
same,TGI,OVCAR-4 ovarian,> 100 µM
same,GI50,OVCAR-5 ovarian,5.32 µM
same,TGI,OVCAR-5 ovarian,> 100 µM
same,GI50,OVCAR-8 ovarian,3.33 µM
same,TGI,OVCAR-8 ovarian,> 100 µM
same,GI50,PC-3 prostate,2.22 µM
same,TGI,PC-3 prostate,> 100 µM
same,GI50,RPMI-8226 leukemia,3.7 µM
same,TGI,RPMI-8226 leukemia,> 100 µM
same,GI50,RXF 393 renal,0.329 µM
same,TGI,RXF 393 renal,49.2 µM
same,GI50,SF-268 CNS,3.17 µM
same,TGI,SF-268 CNS,> 100 µM
same,GI50,SF-295 CNS,0.352 µM
same,TGI,SF-295 CNS,> 100 µM
same,GI50,SF-539 CNS,1.31 µM
same,TGI,SF-539 CNS,5.76 µM
same,GI50,SK-MEL-2 melanoma,2.49 µM
same,TGI,SK-MEL-2 melanoma,> 100 µM
same,GI50,SK-MEL-28 melanoma,3.85 µM
same,TGI,SK-MEL-28 melanoma,> 100 µM
same,GI50,SK-MEL-5 melanoma,2.31 µM
same,TGI,SK-MEL-5 melanoma,13.5 µM
same,GI50,SK-OV-3 ovarian,1.03 µM
same,TGI,SK-OV-3 ovarian,7.49 µM
same,GI50,SN12C renal,4.85 µM
same,TGI,SN12C renal,> 100 µM
same,GI50,SNB-19 CNS,2.52 µM
same,TGI,SNB-19 CNS,> 100 µM
same,GI50,SNB-75 CNS,0.431 µM
same,TGI,SNB-75 CNS,> 100 µM
same,GI50,SR leukemia,3.66 µM
same,TGI,SR leukemia,> 100 µM
same,GI50,SW-620 colon,2.09 µM
same,TGI,SW-620 colon,> 100 µM
same,GI50,T-47D breast,6.7 µM
same,TGI,T-47D breast,> 100 µM
same,GI50,TK-10 renal,9.8 µM
same,TGI,TK-10 renal,> 100 µM
same,GI50,U251 CNS,2.9 µM
same,TGI,U251 CNS,> 100 µM
same,GI50,UACC-257 melanoma,> 100 µM
same,TGI,UACC-257 melanoma,> 100 µM
same,GI50,UACC-62 melanoma,0.467 µM
same,TGI,UACC-62 melanoma,> 100 µM
same,GI50,UO-31 renal,4.46 µM
same,TGI,UO-31 renal,> 100 µM
